Results from patent US5220059A, “Lipoxygenase-inhibiting compounds derived from non-steroidal antiinflammatory carboxylic acids” (Abbott Laboratories, priority 1990, dated 1993).

How the values were obtained:
5-lipoxygenase = molecular target: T1, 5-lipoxygenase (Rattus norvegicus, UniProt P12527); test: In vitro inhibition of 5-lipoxygenase (20,000xg supernatant from homogenized RBL-1 cells); format: biochemical; settings: read-out: IC50 (concentrations producing 50% enzyme inhibition)
T1 construct: 20,000xg supernatant from homogenized RBL-1 cells; endogenous in cells; host or cells: RBL-1 cells (20,000xg supernatant of homogenate)
T1 sequence (P12527 1-673): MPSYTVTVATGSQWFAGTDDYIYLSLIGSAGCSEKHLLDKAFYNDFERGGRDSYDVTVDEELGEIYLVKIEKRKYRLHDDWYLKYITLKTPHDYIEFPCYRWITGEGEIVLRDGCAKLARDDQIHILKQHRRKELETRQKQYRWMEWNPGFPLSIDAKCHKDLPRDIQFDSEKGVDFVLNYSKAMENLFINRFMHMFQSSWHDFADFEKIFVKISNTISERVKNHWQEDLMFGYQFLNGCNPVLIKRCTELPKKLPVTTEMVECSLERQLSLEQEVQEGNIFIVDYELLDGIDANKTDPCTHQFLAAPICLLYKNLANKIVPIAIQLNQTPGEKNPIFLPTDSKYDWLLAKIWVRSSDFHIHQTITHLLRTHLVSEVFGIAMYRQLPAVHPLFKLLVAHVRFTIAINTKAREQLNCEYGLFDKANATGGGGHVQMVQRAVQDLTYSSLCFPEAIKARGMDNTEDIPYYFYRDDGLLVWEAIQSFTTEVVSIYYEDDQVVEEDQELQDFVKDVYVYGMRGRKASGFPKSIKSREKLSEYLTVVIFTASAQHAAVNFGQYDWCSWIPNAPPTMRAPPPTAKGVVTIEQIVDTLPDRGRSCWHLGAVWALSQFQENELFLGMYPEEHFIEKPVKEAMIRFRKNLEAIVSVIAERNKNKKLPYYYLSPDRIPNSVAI
Experimental: The In vitro effect of the compounds of the present invention on 5-lipoxygenase activity was evaluated using the 20,000xg supernatant from homogenized RBL-1 cells in a manner similar to that described by Dyer and coworkers in Fed. Proc., Fed. Am. Soc. Exp. Biol. 43:[…] (1984). IC50 values (i.e., concentrations of the compounds producing 50% enzyme inhibition) were calculated by linear regression analysis of percentage inhibition versus log inhibitor concentration plots.

leukotriene biosynthesis = test: In vivo inhibition of leukotriene biosynthesis, rat peritoneal anaphylaxis model; settings: 200 μmol/kg PO (gavage) one hour prior to antigen challenge, peritoneal fluids collected 15 minutes after challenge
Experimental: The in vivo inhibition of leukotriene biosynthesis by the compounds of the present invention was evaluated in the following manner. The effect of the compounds after oral administration was determined using a rat peritoneal anaphylaxis model in a manner similar to that described by Young and coworkers in Fed. Proc., Fed. Am. Soc. Exp. Biol. 44:1185 (1985). According to this model rats were injected intraperitoneally (IP) with rabbit antibody to bovine serum albumin (BSA) and three hours later injected IP with BSA to induce an antigen-antibody response. Rats were sacrificed 15 minutes after this challenge and the peritoneal fluids were collected and analyzed for leukotriene levels. Test compounds were administered by gavage (PO) one hour prior to the antigen challenge. Percent inhibition values were determined by comparing the treatment group to the mean of the control group.

IC50 (5-lipoxygenase) [nM] | Compound | In vivo Inhibition of Leukotriene Biosynthesis (leukotriene biosynthesis) [%]
640 | CC(C)Cc1ccc(C(C)N(O)C(N)=O)cc1 (stereo not drawn) [Example 1, N-hydroxy-N-[1-(4-(2'-methylpropyl)phenyl)ethyl]urea] | –
430 | COc1ccc2cc(C(C)N(O)C(N)=O)ccc2c1 (stereo not drawn) [Example 2, N-hydroxy-N-1-(6-methoxynaphthalen-2-yl)ethyl urea] | 66
< 400 | CCOC(=O)N(O)C(C)c1ccc(CC(C)C)cc1 (stereo not drawn) [Example 30, N-hydroxy-N-[1-(4-(2'-methylpropyl)phenyl)ethyl] ethoxycarbamate] | –
400 | COc1ccc2c(c1)c(CCN(O)C(N)=O)c(C)n2C(=O)c1ccc(Cl)cc1 [Example 16, N-hydroxy-N-[2-(N-(4-chlorobenzoyl)-5-methoxy-2-methyl-[1H]-indol-3-yl)ethyl] urea] | –
700 | CNC(=O)N(O)C(C)c1ccc(CC(C)C)cc1 (stereo not drawn) [Example 3, N'-methyl-N-hydroxy-N-1-(4-(2'-methylpropyl)phenyl)ethyl urea] | 39
200 | CNC(=O)N(O)CCc1c(C)n(C(=O)c2ccc(Cl)cc2)c2ccc(OC)cc12 [Example 32, N-hydroxy-N-[2-(N-(4-chlorobenzoyl)-5-methoxy-2-methyl-[1H]-indol-3-yl)ethyl]-N'-methyl urea] | 42
600 | CNC(=O)N(O)C(C)c1ccc2cc(OC)ccc2c1 (stereo not drawn) [Example 4, N'-methyl-N-hydroxy-N-1-(6-methoxynaphthalen-2-yl)ethyl urea] | –
200 | CC(C)Cc1ccc(C(C)CN(O)C(N)=O)cc1 (stereo not drawn) [Example 17, N-hydroxy-N-[2-(4-(2-methylpropyl)phenyl)propyl] urea] | –
< 400 | CC(C)Cc1ccc(C(C)N(O)C(N)=S)cc1 (stereo not drawn) [Example 29, N-hydroxy-N-[1-(4-(2'-methylpropyl)phenyl)ethyl] thiourea] | –
200 | CCSC(=O)N(O)C(C)c1ccc(CC(C)C)cc1 (stereo not drawn) [Example 31, N-hydroxy-N-[1-(4-(2'-methylpropyl)phenyl)ethyl] thioethylcarbamate] | –
700 | COc1ccc2cc(C(C)N(O)C(C)=O)ccc2c1 (stereo not drawn) [Example 5, N-hydroxy-N-1-(6-methoxynaphthalen-2-yl)ethyl acetamide] | 62
